Earlier results in patent US12622888B2, “Pharmaceutical composition and application thereof” (priority 2019, dated 2026).

System: infarct size of the heart
Settings: prior art CN2011102229806, FIG. 3

Compound	rank order of the effect on reducing the infarct size
CC(C)=CCC[C@](C)(O[C@@H]1O[C@H](CO)[C@@H](O)[C@H](O)[C@H]1O)[C@H]1CC[C@]2(C)[C@@H]1[C@H](O)C[C@@H]1[C@@]3(C)CC[C@H](O)C(C)(C)[C@@H]3[C@@H](O[C@@H]3O[C@H](CO)[C@@H](O)[C@H](O)[C@H]3O)C[C@]12C [ginsenoside Rg1]	salvianolic acid B <ginsenoside Rg1<<salvianolic acid B: ginsenoside Rg1=2:5 group
O=C(/C=C/c1ccc(O)c2c1[C@H](C(=O)O[C@H](Cc1ccc(O)c(O)c1)C(=O)O)[C@@H](c1ccc(O)c(O)c1)O2)O[C@H](Cc1ccc(O)c(O)c1)C(=O)O [salvianolic acid B]	salvianolic acid B <ginsenoside Rg1<<salvianolic acid B: ginsenoside Rg1=2:5 group
